Earlier results, collected in patent US20120283223A1, “CEREBRAL NERVE CELL NEOGENESIS AGENT” (priority 2010, published 2012).

Test system: cerebral nerve cells
Details: in 3 to 4 weeks; Non-Patent Literature 1

In the case of CNCCC(Oc1ccc(C(F)(F)F)cc1)c1ccccc1 (stereo not shown) [fluoxetine], the “number of cerebral nerve cells” value is listed as “increases”.
